What was measured:
[1] = test system: Enterobacteriaceae isolates; test: Hollow-fiber and chemostat models, strains combined; format: cell-based, E. coli, K. pneumoniae
Description: The PK/PD driver of ETX1317 was assessed in the presence of CPD in both hollow-fiber[28]−[31] and chemostat[32]in vitro infection model systems. In all cases, CPD was administered q12h via a 2 h infusion and eliminated with a 2 h half-life, with the concentration of drug exceeding the MIC (the MIC of CPD in the presence of ETX1317 at a 1:2 ratio) for 50% of the dosing interval for each strain. Representative Emax plots are shown graphically for Escherichia coli ARC2687 in the hollow-fiber model and Klebsiella pneumoniae ARC4420 in the chemostat system (Figure 2). […] This could partially be attributed to the distribution of the concentration ranges utilized for the hollow-fiber infection model (HFIM) where most of the data scatter occurred in the efficacious dose range for lower MIC strains. It is important to note that initial evaluation of K. pneumoniae ARC4420 and ARC5118 was completed in the HFIM but rapid degradation of CPD, presumably through accumulation of β-lactamases in the extra-capillary space of the cartridge precluded a reliable assessment of the PK/PD driver with these strains in this model.[32] […] In both the HFIM and chemostat models the optimum critical threshold of ETX1317 was established through iterative Emax fitting of a range of ETX1317 concentrations from 0.5× to 2× the CPD:ETX1317 MIC value. In the HFIM, %Time > ETX1317 CT of 2× MIC provided the highest correlation to observed activity which appeared to be independent to the apparent intrinsic activity of ETX1317 (as reflected by ETX1317 MICBLI of K. pneumoniae ARC4486 vs ARC4488). […] In both models CPD infused alone mimicked vehicle control as expected with similar growth of +2 to 4 log10 CFU/mL.
PK/PD-derived exposure targets for BLIs have utilized various approaches for clinical dose setting. The use of a singular critical threshold value independent of MIC has been used for recent BL/BLI combinations such as ceftazidime/avibactam[34] aztreonam/avibactam,[35] but this has been problematic to correlate activity across a broad range of MICs. More recent work with ceftolozane/tazobactam[36] and other BLI combinations[37],[38] considers a critical threshold value that varies proportionally to the MIC value. […] Convergence of the data to a threshold value related to MIC simplifies dose setting and, in this case, appears to be consistent across a broad range of susceptibility (0.125–1 μg/mL).
Dose range and dose fractionation were performed in hollow-fiber infection model (HFIM) and chemostat (one-compartment) in vitro infection model. […] CPD concentrations were targeted to achieve exposure of ∼50%Time > MIC determined in the presence of ETX1317. […] Bacterial burden (CFU/mL) was serially assessed by sampling (500 μL) from the extra-capillary space of the HFIM cartridge at predetermined time points. […]

[2] = Plasma protein binding across species; format: in vitro ADME, monkeys, humans, mice, rats, and dogs; conditions: monkey, human, mouse, rat, dog, range across species, 1 to 100 μM
Description: Intravenous and oral pharmacokinetics of ETX1317 and ETX0282 in preclinical species are summarized in Table 7 and Table S1, respectively. Time vs concentration profiles are depicted graphically in Figure S1.
Plasma protein binding was determined by rapid equilibrium dialysis. Plasma was freshly prepared from blood samples drawn in to EDTA (anticoagulant) containing tubes. Plasma was prepared using a table-top centrifuge and spun per instruction of the tube manufacturer and specifications (Beckton, Dickinson and Company, Franklin Lakes, NJ) and placed on ice prior to use.
Pooled plasma samples were centrifuged at 2000 rpm (approximately 1400g) for 15 min at 4 °C to remove debris. Approximately 90% of the clear supernatant fraction was transferred to a separate tube. Samples (500 μL) were then spiked with a 100× stock solution 100 μM, 0.5 mM, and 10 mM ETX1317 in DMSO respectively for 1, 5, and 100 μM final concentrations, transferred to the top of the filter chambers, and allowed to equilibrate for 15 min prior to centrifugation. The filtrate tubes were centrifuged at 14000g for 15 min at 4 °C. Next, 50 μL of the filtrate was precipitated with 300 μL of acetonitrile containing 250 ng/mL of carbutamide as the internal standard and the samples were analyzed by LC/MS/MS analysis.

CC1=C[C@@H](C(N)=O)N2C[C@@H]1N(O[C@H](F)C(=O)O)C2=O [ETX1317]
growth ([1]; infused alone q12h to a Cmax of 16 μg/mL, 100%Time > MICBLI): +0.5 log | % of dosing interval with unbound concentration > 2× MIC associated with reducing bacterial burden below stasis ([1]; with CPD): 50% | % of dosing interval with concentration > 2× MIC for cidal activity ([1]; with CPD 50%Time > MIC, in vitro and in vivo models): 60% | fraction unbound at 15 min [2]: 0.77 to 1
